Patent US8242274B2, “Triazolopyridine kinase inhibitors useful for the treatment of degenerative and inflammatory diseases” (Galapagos NV, priority 2008, dated 2012)

What was measured:
[1] = molecular target: T1, Recombinant human TYK2 catalytic domain (Homo sapiens, UniProt P29597); assay: TYK2 inhibition assay; type: biochemical; conditions: semi-quantitative score
T1 construct: Recombinant human TYK2 catalytic domain (amino acids 871-1187; catalog number 08-147); purchased Carna biosciences 08-147
T1 sequence (P29597 871-1187): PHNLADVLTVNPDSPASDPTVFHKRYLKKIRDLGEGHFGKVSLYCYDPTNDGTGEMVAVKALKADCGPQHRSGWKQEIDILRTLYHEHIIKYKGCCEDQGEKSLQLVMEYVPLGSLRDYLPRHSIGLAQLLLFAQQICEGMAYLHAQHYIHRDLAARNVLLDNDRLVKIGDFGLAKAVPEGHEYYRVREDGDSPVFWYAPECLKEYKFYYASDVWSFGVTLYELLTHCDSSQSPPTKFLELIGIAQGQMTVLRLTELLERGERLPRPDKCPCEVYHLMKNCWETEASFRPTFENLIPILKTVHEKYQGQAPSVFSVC
Procedure: Recombinant human TYK2 catalytic domain (amino acids 871-1187; catalog number 08-147) was purchased from Carna biosciences. 5 ng of TYK2 was incubated with 12.5 μg polyGT substrate (Sigma catalog number P0275) in kinase reaction buffer (25 mM Hepes pH 7.5, 100 mM NaCl, 0.2 mM Na3VO4, 0.1% NP-40, 0.1 μM non-radioactive ATP, 0.125 μCi 33P-gamma-ATP (GE Healthcare, catalog number AH9968) final concentrations) with or without 5 μL containing test compound or vehicle (DMSO, 1% final concentration), in a total volume of 25 μL, in a polypropylene 96-well plate (Greiner, V-bottom). After 90 min at 30° C., reactions were stopped by adding of 25 μL/well of 150 mM phosphoric acid. All of the terminated kinase reaction was transferred to prewashed (75 mM phosphoric acid) 96 well filter plates (Perkin Elmer catalog number 6005177) using a cell harvester (Perkin Elmer). Plates were washed 6 times with 300 μL per well of a 75 mM phosphoric acid solution and the bottom of the plates was sealed. 40 μL/well of Microscint-20 was added, the top of the plates was sealed and readout was performed using the Topcount (Perkin Elmer). Kinase activity was calculated by subtracting counts per minute (cpm) obtained in the presence of a positive control inhibitor (10 μM staurosporine) from cpm obtained in the presence of vehicle. The ability of a test compound to inhibit this activity was determined as: Percentage inhibition=((cpm determined for sample with test compound present−cpm determined for sample with positive control inhibitor) divided by (cpm determined in the presence of vehicle−cpm determined for sample with positive control inhibitor))*100%.
Dose dilution series were prepared for the compounds enabling the testing of dose-response effects in the TYK2 assay and the calculation of the IC50 for each compound. Each compound was routinely tested at concentration of 20 μM followed by a 1/3 serial dilution, 8 points (20 μM-6.67 μM-2.22 μM-740 nM-247 nM-82 nM-27 nM-9 nM) in a final concentration of 1% DMSO.

[2] = system: MAB model; assay: MAB model (collagen antibody-induced arthritis); type: in vivo, mice; conditions: for activity in the MAB model: 30 mg/kg
Procedure: The MAB model allows a rapid assessment of the modulation of an RA-like inflammatory response by therapeutics ([…]. Nature Protocols (2006) 2512-2516: Collagen antibody-induced arthritis). DBA/J mice were injected i.v. with a cocktail of mAbs directed against collagen II. One day later, compound treatment was initiated (vehicle: 10% (v/v) HPβCD). Three days later, mice received an i.p. LPS injection (50 μg/mouse), resulting in a fast onset of inflammation. Compound treatment was continued until 10 days after the mAb injection. Inflammation was read by measuring paw swelling and recording the clinical score of each paw. The cumulative clinical arthritis score of four limbs was presented to show the severity of inflammation. A scoring system is applied to each limb using a scale of 0-4, with 4 being the most severe inflammation. • 0 Symptom free • 1 Mild, but definite redness and swelling of one type of joint such as the ankle or wrist, or apparent redness and swelling limited to individual digits, regardless of the number of affected digits • 2 Moderate redness and swelling of two or more types of joints • 3 Severe redness and swelling of the entire paw including digits • 4 Maximally inflamed limb with involvement of multiple joints

| Structure (SMILES) | IC50 [1] | activity in the MAB model [2] | clinical score, MAB model ([2]; 10 mg/kg p.o.) | inflammation, MAB model ([2]; 10 mg/kg p.o.) | clinical score, MAB model ([2]; 30 mg/kg p.o.) | inflammation, MAB model ([2]; 30 mg/kg p.o.) |
| --- | --- | --- | --- | --- | --- | --- |
| O=C(Nc1nc2cccc(-c3ccc(OCc4ccccn4)cc3)n2n1)C1CC1 [Compound 37, N-(5-(4-(pyridin-2-ylmethoxy)phenyl)-[1,2,4]triazolo[1,5-a]pyridin-2-yl)cyclopropanecarboxamide] | 501 to 1000 nM | active | – | – | – | – |
| N#Cc1ccc(COc2ccc(-c3cccc4nc(NC(=O)C5CC5)nn34)cc2)cn1 [Compound 176, N-(5-(4-((6-cyanopyridin-3-yl)methoxy)phenyl)-[1,2,4]triazolo[1,5-a]pyridin-2-yl)cyclopropanecarboxamide] | 1 to 100 nM | – | reduced the clinical score | significantly reduced inflammation | reduced the clinical score with statistical significance | significantly reduced inflammation |
| O=C(Nc1nc2cccc(-c3ccc(OCc4cccnc4)cc3)n2n1)C1CC1 [Compound 36, N-(5-(4-(pyridin-3-ylmethoxy)phenyl)-[1,2,4]triazolo[1,5-a]pyridin-2-yl)cyclopropanecarboxamide] | 101 to 500 nM | active | – | – | – | – |

More lines, main results first:

| IC50 [1] | Structure (SMILES) | activity in the MAB model [2] | clinical score, MAB model ([2]; 10 mg/kg p.o.) | inflammation, MAB model ([2]; 10 mg/kg p.o.) | clinical score, MAB model ([2]; 30 mg/kg p.o.) | inflammation, MAB model ([2]; 30 mg/kg p.o.) |
| --- | --- | --- | --- | --- | --- | --- |
| > 1000 nM | O=C(Nc1nc2cccc(-c3ccc(NCc4ccccc4)cc3)n2n1)C1CC1 [Compound 72, N-(5-(4-(benzylamino)phenyl)-[1,2,4]triazolo[1,5-a]pyridin-2-yl)cyclopropanecarboxamide] | – | – | – | – | – |
| > 1000 nM | CC(=O)Nc1ccc(COc2ccc(-c3cccc4nc(NC(=O)C5CC5)nn34)cc2)cc1 [Compound 92, N-(5-(4-(4-acetamidobenzyloxy)phenyl)-[1,2,4]triazolo[1,5-a]pyridin-2-yl)cyclopropanecarboxamide] | – | – | – | – | – |
